# Reference: patent publication US20250289804A1, “SUBSTITUTED INDOLE COMPOUNDS AND METHODS OF USE THEREOF” (NOVARTIS PHARMA AG, priority 2021, published 2025)
# Like-named read-outs stand apart in the source and are kept apart here.
# Experiments:
# [1] = test system: MAC formation in normal human serum; assay: Human serum MAC formation assay (zymosan-coated plates, 50% normal human serum); conditions: 50% normal human serum with EGTA, 37° C. 30 minutes
# Experimental: MAC deposition assay using normal human serum was applied to evaluate compound potency under physiologically relevant conditions. Black Maxisorp plates (Thermo Fisher, 437111) were coated with preactivated zymosan (Complement Technology, B400) at 0.5 mg/mL in carbonate buffer (pH 9.5, Sigma, C3041) at room temperature overnight. Compounds were serial diluted 3-fold in 100% DMSO for a 10-point dose-response curve. Normal human serum (Complement Technology, NHS) was diluted to 50% (v/v) with the gelatin buffer (4.2 mM HEPES pH 7.4, 0.15 mM CaCl2, 141 mM NaCl, 4.5 mM MgCl2, 0.1% gelatin) containing 20 mM EGTA or 20 mM EDTA. In conical bottom 96-well plates, 1 μL compound and 99 μL of serum-EGTA were mixed. Serum-EDTA was used as baseline control. The serum-compound mixture was incubated at room temperature for 15 minutes before being transferred to the washed zymosan plate for complement activation at 37° C. for 30 minutes. The reaction was terminated by decanting the reaction mixture and adding blocking buffer (Thermo Fisher, 37539) for 20 minutes. MAC formation on the ELISA plate was detected using 0.2 μg/mL mouse anti-human C9 neoepitope monoclonal antibody (Thermo Fisher, MA5-33373) diluted in phosphate-buffered saline with 0.05% Tween-20 (PBST). A goat anti-mouse IgG-HRP antibody (Thermo Fisher, A16072) was used at 1:2000 in PBST as secondary antibody. After washing, the reaction was developed using QuantaBlu (Thermo Fisher, 15169) for 20 minutes at room temperature. The plates were read at 325 nm excitation and 420 nm emission wavelengths. Percent inhibition values were generated using the baseline (EDTA-serum) and the maximum control (EGTA-serum). An IC50 for each compound was calculated using 4-parameter logistic regression.
# [2] = molecular target: human C3bBb (Homo sapiens (Human), UniProt P00751); assay: Human C3bBb enzyme assay (C3a generation from C3, ELISA); format: biochemical
# human C3bBb, sequence (P00751 260-764): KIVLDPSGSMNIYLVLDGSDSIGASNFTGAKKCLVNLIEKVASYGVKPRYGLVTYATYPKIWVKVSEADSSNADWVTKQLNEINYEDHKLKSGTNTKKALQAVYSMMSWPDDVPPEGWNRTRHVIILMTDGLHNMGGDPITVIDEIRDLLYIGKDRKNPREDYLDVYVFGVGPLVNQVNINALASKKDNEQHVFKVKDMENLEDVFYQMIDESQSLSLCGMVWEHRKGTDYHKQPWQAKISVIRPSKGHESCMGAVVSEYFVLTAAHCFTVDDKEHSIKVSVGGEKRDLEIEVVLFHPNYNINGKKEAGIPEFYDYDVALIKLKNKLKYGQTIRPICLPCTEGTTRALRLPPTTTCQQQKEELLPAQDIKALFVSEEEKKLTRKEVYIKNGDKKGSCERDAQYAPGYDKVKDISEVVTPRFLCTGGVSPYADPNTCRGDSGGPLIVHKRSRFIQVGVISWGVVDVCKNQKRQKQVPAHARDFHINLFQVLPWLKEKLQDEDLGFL
# human C3bBb, sequence (P01024 23-667 partner): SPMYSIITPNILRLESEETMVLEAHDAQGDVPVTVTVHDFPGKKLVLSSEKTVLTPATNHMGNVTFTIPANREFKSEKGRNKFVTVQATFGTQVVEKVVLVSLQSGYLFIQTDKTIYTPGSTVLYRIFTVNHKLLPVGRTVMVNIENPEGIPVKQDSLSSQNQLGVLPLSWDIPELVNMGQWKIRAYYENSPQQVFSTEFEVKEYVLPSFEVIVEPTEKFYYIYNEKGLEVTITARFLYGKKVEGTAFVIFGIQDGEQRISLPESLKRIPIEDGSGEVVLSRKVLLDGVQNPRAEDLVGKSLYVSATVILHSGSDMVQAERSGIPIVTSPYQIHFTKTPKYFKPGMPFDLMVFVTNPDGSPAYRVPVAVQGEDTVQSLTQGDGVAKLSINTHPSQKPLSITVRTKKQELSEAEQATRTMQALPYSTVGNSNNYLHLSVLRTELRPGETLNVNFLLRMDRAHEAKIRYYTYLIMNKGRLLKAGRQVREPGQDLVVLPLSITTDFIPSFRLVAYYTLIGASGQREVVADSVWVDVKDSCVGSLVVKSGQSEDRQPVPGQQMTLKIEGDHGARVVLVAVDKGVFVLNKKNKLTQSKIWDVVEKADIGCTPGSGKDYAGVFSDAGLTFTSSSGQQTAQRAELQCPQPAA
# human C3bBb, sequence (P01024 749-1663 partner): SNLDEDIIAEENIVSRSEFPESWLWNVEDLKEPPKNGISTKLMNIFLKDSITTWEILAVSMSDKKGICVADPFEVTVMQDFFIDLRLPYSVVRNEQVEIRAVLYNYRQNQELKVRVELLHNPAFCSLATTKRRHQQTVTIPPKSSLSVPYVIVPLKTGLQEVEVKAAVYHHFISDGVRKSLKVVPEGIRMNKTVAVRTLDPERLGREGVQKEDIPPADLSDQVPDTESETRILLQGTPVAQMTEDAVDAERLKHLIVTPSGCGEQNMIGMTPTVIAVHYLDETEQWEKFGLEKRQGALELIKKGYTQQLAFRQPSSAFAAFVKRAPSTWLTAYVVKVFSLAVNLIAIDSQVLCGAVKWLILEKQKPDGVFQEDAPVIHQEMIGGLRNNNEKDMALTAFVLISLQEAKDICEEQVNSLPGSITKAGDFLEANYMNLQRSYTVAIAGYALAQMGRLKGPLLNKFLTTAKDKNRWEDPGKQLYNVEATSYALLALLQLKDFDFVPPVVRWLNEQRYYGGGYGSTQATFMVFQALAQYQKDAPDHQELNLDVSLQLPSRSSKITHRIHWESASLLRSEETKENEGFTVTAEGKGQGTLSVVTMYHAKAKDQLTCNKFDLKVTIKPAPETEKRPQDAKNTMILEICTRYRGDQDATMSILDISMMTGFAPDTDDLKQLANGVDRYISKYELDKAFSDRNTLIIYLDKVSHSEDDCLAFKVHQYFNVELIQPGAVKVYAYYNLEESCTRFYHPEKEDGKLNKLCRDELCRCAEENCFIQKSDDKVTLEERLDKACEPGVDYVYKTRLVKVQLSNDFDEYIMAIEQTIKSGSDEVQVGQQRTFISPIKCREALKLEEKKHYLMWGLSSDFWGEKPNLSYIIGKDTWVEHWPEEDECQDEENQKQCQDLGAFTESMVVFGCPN
# Experimental: Compounds disclosed herein were evaluated for their potency to inhibit human C3bBb in a biochemical assay. To generate active C3bBb complex in vitro, purified human C3b (Complement Technology, A114), CFB (Complement Technology, A135) and CFD (Complement Technology, A136) were mixed in a 1:1:1 ratio to a final concentration of 1 μM each in the C3bBb assay buffer (PBS pH 7.4, 100 μM NiCl2, 0.05% (w/v) CHAPS). The reaction mix was incubated at room temperature for 30 minutes on a rotating platform. […] On the day of the enzyme assay, a reaction mixture containing 3 nM C3bBb complex and 1 μM purified human C3 (Complement Technology, A113) was prepared in the C3bBb assay buffer. Compounds were serial diluted 3-fold in 100% DMSO for a 10-point dose-response curve. A 0.5 μL aliquot of diluted compound solution was transferred to a conical bottom 96-well plate, before 49.5 μL of the reaction mix was added to each well to initiate the reaction. The plate was incubated for 1 hour at room temperature. […] The generation of C3a from C3 by the C3bBb complex was measured using the MicroVue C3a Plus EIA ELISA kit (Quidel, A031). The concentration of C3a from each well was calculated using a standard curve. Percent inhibition values were generated using the baseline (C3 only) and the maximum control (DMSO instead of compound), and IC50 of each compound was calculated using 4-parameter logistic regression.
# [3] = starred values: assay conducted with 1 nM C3b:Bb enzyme, read-out: Human C3b:Bb IC50 Avg
# [4] = 3 nM C3bBb complex, 1 μM human C3, 1 hour room temperature, read-out: Human C3b:Bb IC50 Avg
SMILES,IC50 [1] [µM],"IC50 [2, 3] [nM]","IC50 [2, 4] [nM]","IC50 ([2]; Human C3b:Bb IC50 Avg (nM), 3 nM C3bBb complex, 1 μM human C3, 1 hour room temperature) [nM]"
"COc1cc(C)c2[nH]ccc2c1CN1CC[C@H](C2CCC2)C[C@H]1c1ccc(C(=O)O)cc1 (mixture of isomers) [Example 43, 4-((2S,4S)-4-cyclobutyl-1-((5-methoxy-7-methyl-1H-indol-4-yl)methyl)piperidin-2-yl)benzoic acid and 4-((2S,4R)-4-cyclobutyl-1-((5-methoxy-7-methyl-1H-indol-4-yl)methyl)piperidin-2-yl)benzoic acid]",> 0.5,50 to 100,,
"COc1cc(C)c2[nH]ccc2c1CN1CC[C@H](n2cc(Br)cn2)C[C@H]1c1ccc(C(=O)O)cc1 (racemic) [Example 2, (±)-trans-4-(4-(4-bromo-1H-pyrazol-1-yl)-1-((5-methoxy-7-methyl-1H-indol-4-yl)methyl)piperidin-2-yl)benzoic acid]",0.3 to 0.5,,50 to 100,
"COc1cc(C)c2[nH]ccc2c1CN1CC[C@H](n2cncn2)C[C@H]1c1ccc(C(=O)O)cc1 (racemic) [Example 3, (±)-trans-4-(1-((5-methoxy-7-methyl-1H-indol-4-yl)methyl)-4-(1H-1,2,4-triazol-1-yl)piperidin-2-yl)benzoic acid]",> 0.5,,10 to 25,
"COc1cc(C)c2[nH]ccc2c1CN1CC[C@H](n2cnc(C(F)(F)F)n2)C[C@H]1c1ccc(C(=O)O)cc1 (racemic) [Example 5, (±)-trans-4-(1-((5-methoxy-7-methyl-1H-indol-4-yl)methyl)-4-(3-(trifluoromethyl)-1H-1,2,4-triazol-1-yl)piperidin-2-yl)benzoic acid]",> 0.5,,,
"COc1cc(C)c2[nH]ccc2c1CN1CC[C@H](n2cc3ccccc3n2)C[C@H]1c1ccc(C(=O)O)cc1 (racemic) [Example 6, (±)-trans-4-(4-(2H-indazol-2-yl)-1-((5-methoxy-7-methyl-1H-indol-4-yl)methyl)piperidin-2-yl)benzoic acid]",> 0.5,,,
"COc1cc(C)c2[nH]ccc2c1CN1CC[C@H](n2cc(C(F)F)cn2)C[C@H]1c1ccc(C(=O)O)cc1 (racemic) [Example 7, (±)-trans-4-(4-(4-(difluoromethyl)-1H-pyrazol-1-yl)-1-((5-methoxy-7-methyl-1H-indol-4-yl)methyl)piperidin-2-yl)benzoic acid]",0.1 to 0.2,< 10,,
"COc1cc(C)c2[nH]ccc2c1CN1CC[C@H](n2cccn2)C[C@H]1c1ccc(C(=O)O)cc1 (racemic) [Example 9, (±)-trans-4-(1-((5-methoxy-7-methyl-1H-indol-4-yl)methyl)-4-(1H-pyrazol-1-yl)piperidin-2-yl)benzoic acid]",> 0.5,,> 100,
"COc1cc(C)c2[nH]ccc2c1CN1CC[C@H](n2cc(S(C)(=O)=O)cn2)C[C@H]1c1ccc(C(=O)O)cc1 (racemic) [Example 11, (±)-trans-4-(1-((5-methoxy-7-methyl-1H-indol-4-yl)methyl)-4-(4-methylsulfonyl)-1H-pyrazol-1-yl)piperidin-2-yl)benzoic acid]",> 0.5,,> 100,
"COc1cc(C)c2[nH]ccc2c1CN1CC[C@H](N2CCCC2=O)C[C@H]1c1ccc(C(=O)O)cc1 (racemic) [Example 12, (±)-trans-4-(1-((5-methoxy-7-methyl-1H-indol-4-yl)methyl)-4-(2-oxopyrrolidin-1-yl)piperidin-2-yl)benzoic acid]",0.3 to 0.5,,,> 100
"COc1cc(C)c2[nH]ccc2c1CN1CC[C@H](NCC(F)(F)F)C[C@H]1c1ccc(C(=O)O)cc1 (racemic) [Example 14, (+)-trans-4-(1-((5-methoxy-7-methyl-1H-indol-4-yl)methyl)-4-((2,2,2-trifluoroethyl)amino)piperidin-2-yl)benzoic acid]",0.1 to 0.2,,10 to 25,
"COc1cc(C)c2[nH]ccc2c1CN1CC[C@H](NS(N)(=O)=O)C[C@H]1c1ccc(C(=O)O)cc1 (racemic) [Example 16, (±)-trans-4-(1-((5-methoxy-7-methyl-1H-indol-4-yl)methyl)-4-(sulfamoylamino)piperidin-2-yl)benzoic acid]",0.3 to 0.5,,> 100,
"COc1cc(C)c2[nH]ccc2c1CN1CC[C@H](NC2COC2)C[C@H]1c1ccc(C(=O)O)cc1 (racemic) [Example 17, (+)-trans-4-(1-((5-methoxy-7-methyl-1H-indol-4-yl)methyl)-4-(oxetan-3-ylamino)piperidin-2-yl)benzoic acid]",0.1 to 0.2,,10 to 25,
"COc1cc(C)c2[nH]ccc2c1CN1CCC2(COC2)CC1c1ccc(C(=O)O)cc1 (racemic) [Example 31, (±)-4-(7-((5-methoxy-7-methyl-1H-indol-4-yl)methyl)-2-oxa-7-azaspiro[3.5]nonan-6-yl)benzoic acid]",> 0.5,< 10,,
"COc1cc(C)c2[nH]ccc2c1CN1CC[C@H](c2ccccc2)C[C@H]1c1ccc(C(=O)O)cc1 (racemic) [Example 37, (±)-trans-4-(1-((5-methoxy-7-methyl-1H-indol-4-yl)methyl)-4-phenylpiperidin-2-yl)benzoic acid]",> 0.5,,> 100,
"COc1cc(C)c2[nH]ccc2c1CN1CC2(CCCC2)C1c1ccc(C(=O)O)cc1 (racemic) [Example 39, (±)-4-(2-((5-methoxy-7-methyl-1H-indol-4-yl)methyl)-2-azaspiro[3.4]octan-1-yl)benzoic acid]",0.3 to 0.5,,> 100,
"COc1cc(C)c2[nH]ccc2c1CN1CC[C@H](N2CC(C(F)(F)F)C2)C[C@H]1c1ccc(C(=O)O)cc1 (racemic) [Example 71, (±)-trans-4-1-((5-methoxy-7-methyl-1H-indol-4-yl)methyl)-4-(3-(trifluoromethyl)azetidin-1-yl)piperidin-2-yl)benzoic acid]",0.3 to 0.5,< 10,,
"COc1cc(C)c2[nH]ccc2c1CN1CC[C@@]2(CCCO2)C[C@H]1c1ccc(C(=O)O)cc1 (single isomer, unassigned) [Example 33, 4-((5S,7S)-8-((5-methoxy-7-methyl-1H-indol-4-yl)methyl)-1-oxa-8-azaspiro[4.5]decan-7-yl)benzoic acid or 4-((5R,7S)-8-((5-methoxy-7-methyl-1H-indol-4-yl)methyl)-1-oxa-8-azaspiro[4.5]decan-7-yl)benzoic acid]",> 0.5,> 100,,
"COc1cc(C)c2[nH]ccc2c1CN1CC[C@@]2(CCOC2)C[C@H]1c1ccc(C(=O)O)cc1 (single isomer, unassigned) [Example 34, 4-((5S,7S)-8-((5-methoxy-7-methyl-1H-indol-4-yl)methyl)-2-oxa-8-azaspiro[4.5]decan-7-yl)benzoic acid or 4-((5R,7S)-8-((5-methoxy-7-methyl-1H-indol-4-yl)methyl)-2-oxa-8-azaspiro[4.5]decan-7-yl)benzoic acid]",0.1 to 0.2,< 10,,
"COc1cc(C)c2[nH]ccc2c1CN1CC[C@H](NCC2(C(F)(F)F)CC2)C[C@H]1c1ccc(C(=O)O)cc1 [Example 27, 4-((2S,4S)-1-((5-methoxy-7-methyl-1H-indol-4-yl)methyl)-4-(((1-(trifluoromethyl)cyclopropyl)methyl)amino)piperidin-2-yl)benzoic acid]",0.1 to 0.2,,,
"COc1cc(C)c2[nH]ccc2c1CN1CC[C@H](C2CC2)C[C@H]1c1ccc(C(=O)O)cc1 [Example 41, 4-((2S,4S)-4-cyclopropyl-1-((5-methoxy-7-methyl-1H-indol-4-yl)methyl)piperidin-2-yl)benzoic acid]",0.1 to 0.2,,,
